Test [1] concerns Alkaline Phosphatase. The method, then: Monitoring the enzymatic hydrolysis of glycolic acid-O-phosphate with Alkaline Phosphatase by NMR: Glycolic acid-O-phosphate (1.1 mg, 7.1 μmol) was added to a buffer containing 0.5 mL of 100 mM KCl, 140 mM Na2CO3 buffer in 0.5 mL of D2O at pD 9.4. […] (0.5 mg, 1 nmol) was added to the solution and ^31P-NMR spectra were taken at various time points to monitor the enzymatic hydrolysis of glycolic acid-O-phosphate to glycolic acid. ^31P-NMR (300 MHz, D2O): glycolic acid-O-phosphate: δ 3.33 ppm, free inorganic phosphate: 2.54 ppm using an internal 85% phosphoric acid standard (set to 0 ppm).

Test [2] in a line: Single-channel conductance in negatively charged planar bilayers (50% POPE, 50% DOPS). Type of test: biochemical. Particulars: 0.01 M KCl. From the text:
The data acquisition boards for both amplifiers were set to a sampling frequency of 15 kHz.

Test [3] can be described thus: Single-channel conductance of homodimeric gA pores in planar lipid bilayers made from DiPhyPC (Example 1). It is filed as biochemical. The following applies: 20 mM KCl plus 10 mM KOH; for γ at pH 12: DiPhyPC bilayers, homodimers.
Experiment in test [4]: as above
Type of test: biochemical. The following applies: for Single-channel conductance γ: HEPES pH 7.4, DiPhyPC bilayers, slope of I-V curves; for Single-channel conductance γ / γ at pH 7.4: homodimers; for γ at pH 7.4: DiPhyPC bilayers; for γ-ratio to gA-gA: pH 7.4, DiPhyPC. On the procedure:
Formation of planar lipid bilayers: We formed most planar lipid bilayers with the “folding technique.” We used a Teflon film (Eastern Scientific Inc, pore diameter 0.18-0.25 mm) was pretreated on each side with 2.5 μL of 5% hexadecane in pentane and air dried. This film was mounted using vacuum grease (Dow Corning, High vacuum grease) to a custom made Teflon chamber separating two buffer compartments each with a volume capacity of 4 mL. After adding 1 mL of electrolyte (0.01 M to 1.00 M KCl buffered with HEPES pH 7.4) to each compartment, lipids were spread from a solution in pentane onto the surface of the electrolyte solutions (specifically, 4-6 μL from 25 mg mL-l solution DiPhyPC or from 6.25 mg mL-l each of 50% DOPS and 50% POPE or from 25 mg mL-l DODAP mixed with 25 mg mL-l DiPhyPC in a 1:9 ratio. Three additional milliliters of electrolyte solution were added to each side of the chamber to raise the liquid levels above the aperture. We formed the bilayers from apposition of two monolayers of lipids using the method described by Montal et al. (Proc. Natl. Acad. Sci. U.S.A. 1972, 69, 3561-3566). Briefly, bilayers were obtained by consecutively raising the liquid level in each compartment until the pore was completely covered by electrolyte. If at this point the pore was not closed by a lipid bilayer, then the liquid level in one or both compartments was lowered below the pore level by aspirating electrolyte into a 3 mL syringe, followed by raising the electrolyte solution again.
Planar lipid bilayers were also made with the “painting technique”. We pretreated each side of a pore in a bilayer cup (Warner Instruments, Delrin perfusion cup, volume 1 mL, pore diameter 250 μm) with ˜2 μL of a 25 mg mL-l solution of DiPhyPC in hexane. After adding recording buffer (0.01 M KCl to 1.00 M KCl buffered with HEPES, pH=7.4) to both compartments of the bilayer setup, we “painted” a solution of 20 mg mL-l DiPhyPC in n-decane over the pore by using a paint brush with a fine tip. We followed the thinning of the decane droplet to form a planar bilayer by monitoring the capacitance of the bilayer. After verifying that bilayers were stable for several minutes (in the range of ±200 mV applied voltage) and that the capacitances were above 80-90 pF, gA was added (4-8 μL from 1 ng mL-l in ethanol), derivatives 1 or 2 (2-10 μL from 100 ng mL-l in ethanol), or derivative 3 (4-10 μL from 100 ng mL-l in ethanol) directly to the bilayer chambers.
Ion channel measurements: We performed single channel recordings in “voltage clamp mode” using Ag/AgCl electrodes (Warner Instruments) in each compartment of the bilayer chambers. Data acquisition and storage was carried out using custom software in combination with either an EPC-7 patch clamp amplifier from List Medical Electronic (set at a gain of 100 mV pA-1 and a filter cutoff frequency of 3 kHz) or a Geneclamp 500 amplifier from Axon Instruments (with a CV-5B 100GU headstage, set at a gain of 100 mV pA-1 and filter cutoff frequency of 1 kHz). We used the EPC-7 amplifier for most folded bilayers and the Geneclamp 500 amplifier for most painted bilayers. The data acquisition boards for both amplifiers were set to a sampling frequency of 15 kHz. All current traces shown in the figures were further filtered using a digital Gaussian low-pass filter with a cutoff frequency of 30 Hz. The current traces we used to generate all data that was recorded at applied potentials s 50 mV were filtered at 10 Hz.
We performed the analysis of the single channel current traces by computing histograms of the currents from the original current-time traces with ClampFit 9.2 software from Axon Instruments. From these histograms we extracted the main current values by fitting a Gaussian function to the peaks in the histograms. […] Single channel conductances reported in this paper always refer to the main conductance state (i.e. to the dominant peaks in the current histograms).

Test [5] addresses bovine carbonic anhydrase II (CA, EC 4.2.1.1) (Bos taurus, UniProt P00921). Briefly: Detection of protein-ligand binding interactions using ion channel measurements. Particulars: 12 pM structure 11, 50 μM CA, 140 mM KCl, 10 mM phosphate pH 8.0, 100 mV. On the procedure:
Benzenesulfonamides are well-known ligands for carbonic anhydrase II (CA, EC 4.2.1.1), a Zn^2+-containing protein.
Detection of protein-ligand binding interactions using ion channel measurements: About 1 μL (from a 100 ng mL^−1 solution in ethanol) of structure 11 (to afford a final concentration of 12 pM of structure 11) was added to each compartment of a bilayer setup containing as electrolyte 140 mM KCl and 10 mM phosphate buffer (pH 8.0). The conductance was recorded at 100 mV.

Test [6] can be described thus: Single channel recordings of gA derivatives in planar lipid bilayers (Example 2). It is filed as biochemical. Particulars: applied potential 100 mV, 20 mM KCl, 0.2 mM HEPES pH 7.4. On the procedure: Formation of Planar Lipid Bilayers: Planar lipid bilayers were formed by the “folding technique.” Briefly, a film (e.g., Teflon®, Eastern Scientific Inc, pore diameter 0.1-0.2 mm) that was pretreated on both sides of the pore with 2 μL of 5% (v/v) hexadecane in pentane. This film was mounted using vacuum grease (Dow Corning, High vacuum grease) to a custom-made Teflon chamber separating two buffer compartments each with a volume capacity of 4 mL. After addition of 1 mL of electrolyte (20 mM KCl buffered with 0.2 mM HEPES pH 7.4 or 140 mM KCl buffered with 10 mM phosphate pH 8.0) to each compartment, lipids were spread at the air-water interface of the electrolyte solution in both compartments. Three additional milliliters of the same electrolyte solution were added to each compartment to raise the liquid level above the aperture in the Teflon film. The bilayers were formed on the pore of the Teflon film by aspirating the electrolyte solution into a 3 mL syringe, followed by dispensing the electrolyte solution back into each compartment.
Ion Channel Measurements: Single channel recordings in “voltage clamp mode” were performed using Ag/AgCl pellet electrodes (Warner Instruments) in each compartment of the bilayer setup. Data acquisition and storage was carried out using custom software in combination with an EPC-7 patch clamp amplifier from Heka (set at a gain of 10 mV pA^−1 and a filter cutoff frequency of 3 kHz). The data acquisition board for the amplifier was set to a sampling frequency of 15 kHz. All current traces shown in the figures were further filtered using a digital Gaussian low-pass filter with a cutoff frequency of 4 Hz.
The analysis of single channel current traces was performed by computing histograms of the currents from the original current versus time traces with ClampFit 9.2 software from Axon Instruments. From these histograms, main current values were extracted by fitting a Gaussian function to the peaks in the histograms. […]

Where “and” joins values, the source holds several entries; their conditions need not be identical. Equal values may be shown once. Entries after “also recorded” stand apart in the source; their conditions may differ.

bovine carbonic anhydrase II (CA, EC 4.2.1.1), sequence (P00921 whole entry): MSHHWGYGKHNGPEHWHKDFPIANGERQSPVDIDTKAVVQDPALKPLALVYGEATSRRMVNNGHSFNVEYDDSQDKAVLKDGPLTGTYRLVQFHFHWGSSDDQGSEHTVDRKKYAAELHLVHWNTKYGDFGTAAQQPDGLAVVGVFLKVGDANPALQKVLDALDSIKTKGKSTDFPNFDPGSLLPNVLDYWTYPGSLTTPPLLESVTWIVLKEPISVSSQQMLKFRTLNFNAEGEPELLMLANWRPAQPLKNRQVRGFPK

With `O=C(O)COP(=O)(O)O` [glycolic acid-O-phosphate], the “time after which the enzymatic hydrolysis was completed” value in test [1] (7.1 μmol substrate, 1 nmol enzyme, 100 mM KCl, 140 mM Na2CO3, pD 9.4) came out at 50 min. In addition, the “hydrolysis by AP” value in test [1] (31P-NMR spectroscopy) was “hydrolyzed by AP”.

Consider Gramicidin A [gA, reference compound], for which the “Single-channel conductance γ in negatively charged bilayers” value in test [2] (0.1 mM HEPES pH 7.4, listed as gA-gA) was 26.9±0.2 pS and 27 pS. Moreover, the “γ at pH 12” value in test [3] amounted to 7.8 ± 0.2 pS. In addition, the “Single-channel conductance γ” value in test [4] (0.01 M KCl) is 2.7 ± 0.5 pS; in test [4] (0.10 M KCl), 10.3 ± 0.1 pS; in test [4] (1.00 M KCl, listed as gA-gA), 20 pS and 20.0 ± 0.2 pS. In addition, the “γ at pH 7.4” value in test [4] (20 mM KCl) was 4.5 ± 0.1 pS.

“gA-triazole-benzenesulfonamide [structure 11]”: the “effect of CA on ion channel activity” value is “suppression of ion channel activity; also recorded: reduction of ion channel activity” in test [5] and “reduces the observed transmembrane ion flux” in test [5] (listed as gA-sulfonamide 11).

With gramicidamine, the “ion channel activity in planar lipid bilayers” value in test [6] is listed as “retained well-defined ion channel activity”. Moreover, the “conductance compared with gA-gA at pH 12” value in test [3] (DiPhyPC) was “indistinguishable”. In addition, in test [3], the “γ at pH 12” value amounted to 7.7 ± 0.9 pS. The “conductance compared with gA-gA at pH 7.4” value in test [4] (20 mM KCl, DiPhyPC) is recorded as “significantly less”. The “γ at pH 7.4” value in test [4] (20 mM KCl) is recorded as 3.8 ± 0.2 pS.

For “gramicidyl taurinyl succinate [compound 1]”, in test [2] (0.1 mM HEPES pH 7.4), the “Single-channel conductance γ in negatively charged bilayers” value is listed as 26.8±0.9 pS. The “Single-channel conductance γ” value in test [4] (0.01 M KCl) was determined as 3.5 ± 0.3 pS; in test [4] (0.10 M KCl), 11.0 ± 0.4 pS; in test [4] (1.00 M KCl), 19.5 ± 0.4 pS. In addition, the “γ-ratio to gA-gA” value is listed as “about 1.3” in test [4] (0.01 M KCl); 1.3 in test [4] (0.01 M KCl, listed as 1-1); 1.1 in test [4] (0.10 M KCl); 1.0 in test [4] (1.00 M KCl). Moreover, the entries for the “difference in single channel conductance compared to gA” value in test [4] (approximately 0.10 M KCl) and in test [4] (approximately 1.00 M KCl) were 7% and 3%, respectively.

(Values after US8586369B2, “Ion channel-forming peptides” (The Regents of the University of California, priority 2007, dated 2013).)
